# From PubChem BioAssay (NCI)
#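 Five compound concentrations were applied to cells in 96-well plates for 48 hours; endpoints were derived by simple linear interpolation of the resulting dose-response curve. TGI denotes the concentration required for complete inhibition of growth.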
# Key:
# Experiment in all cases: NCI-60 cell line screen, 48 h
# 786-0 renal = tested on: 786-0 renal
# A498 renal = tested on: A498 renal
# A549 NSCLC = tested on: A549 NSCLC
# ACHN renal = tested on: ACHN renal
# BT-549 breast = tested on: BT-549 breast
# CAKI-1 renal = tested on: CAKI-1 renal
# CCRF-CEM leukemia = tested on: CCRF-CEM leukemia
# COLO 205 colon = tested on: COLO 205 colon
# DU-145 prostate = tested on: DU-145 prostate
# EKVX NSCLC = tested on: EKVX NSCLC
# HCC-2998 colon = tested on: HCC-2998 colon
# HCT-116 colon = tested on: HCT-116 colon
# HCT-15 colon = tested on: HCT-15 colon
# HL-60(TB) leukemia = tested on: HL-60(TB) leukemia
# HOP-62 NSCLC = tested on: HOP-62 NSCLC
# HOP-92 NSCLC = tested on: HOP-92 NSCLC
# HS 578T breast = tested on: HS 578T breast
# HT29 colon = tested on: HT29 colon
# IGROV1 ovarian = tested on: IGROV1 ovarian
# K-562 leukemia = tested on: K-562 leukemia
# KM12 colon = tested on: KM12 colon
# LOX IMVI melanoma = tested on: LOX IMVI melanoma
# M14 melanoma = tested on: M14 melanoma
# MALME-3M melanoma = tested on: MALME-3M melanoma
# MCF7 breast = tested on: MCF7 breast
# MDA-MB-231 breast = tested on: MDA-MB-231 breast
# MDA-MB-435 = tested on: MDA-MB-435
# MDA-N = tested on: MDA-N
# MOLT-4 leukemia = tested on: MOLT-4 leukemia
# NCI-H226 lung = tested on: NCI-H226 lung
# NCI-H23 lung = tested on: NCI-H23 lung
# NCI-H460 lung = tested on: NCI-H460 lung
# NCI-H522 lung = tested on: NCI-H522 lung
# NCI/ADR-RES ovarian = tested on: NCI/ADR-RES ovarian
# OVCAR-3 ovarian = tested on: OVCAR-3 ovarian
# OVCAR-4 ovarian = tested on: OVCAR-4 ovarian
# OVCAR-5 ovarian = tested on: OVCAR-5 ovarian
# OVCAR-8 ovarian = tested on: OVCAR-8 ovarian
# PC-3 prostate = tested on: PC-3 prostate
# RPMI-8226 leukemia = tested on: RPMI-8226 leukemia
# SF-268 CNS = tested on: SF-268 CNS
# SF-295 CNS = tested on: SF-295 CNS
# SF-539 CNS = tested on: SF-539 CNS
# SK-MEL-2 melanoma = tested on: SK-MEL-2 melanoma
# SK-MEL-28 melanoma = tested on: SK-MEL-28 melanoma
# SK-MEL-5 melanoma = tested on: SK-MEL-5 melanoma
# SK-OV-3 ovarian = tested on: SK-OV-3 ovarian
# SN12C renal = tested on: SN12C renal
# SNB-19 CNS = tested on: SNB-19 CNS
# SNB-75 CNS = tested on: SNB-75 CNS
# SR leukemia = tested on: SR leukemia
# SW-620 colon = tested on: SW-620 colon
# TK-10 renal = tested on: TK-10 renal
# U251 CNS = tested on: U251 CNS
# UACC-257 melanoma = tested on: UACC-257 melanoma
# UACC-62 melanoma = tested on: UACC-62 melanoma
# UO-31 renal = tested on: UO-31 renal
structure (smiles),measurement,setting,value
Cc1c(-c2c(C)c3ccccc3n2S(=O)(=O)c2ccccc2)n(S(=O)(=O)c2ccccc2)c2ccccc12,TGI,786-0 renal,42.9 µM
same,TGI,A498 renal,> 100 µM
same,TGI,A549 NSCLC,> 100 µM
same,TGI,ACHN renal,> 100 µM
same,TGI,BT-549 breast,> 100 µM
same,TGI,CAKI-1 renal,> 100 µM
same,TGI,CCRF-CEM leukemia,> 100 µM
same,TGI,COLO 205 colon,> 100 µM
same,TGI,DU-145 prostate,> 33.5 µM
same,TGI,EKVX NSCLC,> 100 µM
same,TGI,HCC-2998 colon,> 69 µM
same,TGI,HCT-116 colon,> 100 µM
same,TGI,HCT-15 colon,> 100 µM
same,TGI,HL-60(TB) leukemia,> 100 µM
same,TGI,HOP-62 NSCLC,> 87.3 µM
same,TGI,HOP-92 NSCLC,> 100 µM
same,TGI,HS 578T breast,> 100 µM
same,TGI,HT29 colon,> 100 µM
same,TGI,IGROV1 ovarian,> 100 µM
same,TGI,K-562 leukemia,> 100 µM
same,TGI,KM12 colon,> 100 µM
same,TGI,LOX IMVI melanoma,> 100 µM
same,TGI,M14 melanoma,> 100 µM
same,TGI,MALME-3M melanoma,13.1 µM
same,TGI,MCF7 breast,> 100 µM
same,TGI,MDA-MB-231 breast,> 100 µM
same,TGI,MDA-MB-435,> 100 µM
same,TGI,MDA-N,> 100 µM
same,TGI,MOLT-4 leukemia,> 100 µM
same,TGI,NCI-H226 lung,> 100 µM
same,TGI,NCI-H23 lung,> 100 µM
same,TGI,NCI-H460 lung,16.3 µM
same,TGI,NCI-H522 lung,> 100 µM
same,TGI,NCI/ADR-RES ovarian,> 100 µM
same,TGI,OVCAR-3 ovarian,> 100 µM
same,TGI,OVCAR-4 ovarian,> 100 µM
same,TGI,OVCAR-5 ovarian,> 100 µM
same,TGI,OVCAR-8 ovarian,> 100 µM
same,TGI,PC-3 prostate,> 100 µM
same,TGI,RPMI-8226 leukemia,> 100 µM
same,TGI,SF-268 CNS,> 100 µM
same,TGI,SF-295 CNS,> 100 µM
same,TGI,SF-539 CNS,> 100 µM
same,TGI,SK-MEL-2 melanoma,> 100 µM
same,TGI,SK-MEL-28 melanoma,> 100 µM
same,TGI,SK-MEL-5 melanoma,> 94.1 µM
same,TGI,SK-OV-3 ovarian,> 100 µM
same,TGI,SN12C renal,> 100 µM
same,TGI,SNB-19 CNS,> 100 µM
same,TGI,SNB-75 CNS,> 31.6 µM
same,TGI,SR leukemia,> 100 µM
same,TGI,SW-620 colon,> 100 µM
same,TGI,TK-10 renal,> 100 µM
same,TGI,U251 CNS,> 100 µM
same,TGI,UACC-257 melanoma,> 100 µM
same,TGI,UACC-62 melanoma,> 100 µM
same,TGI,UO-31 renal,> 100 µM
